Key:
[1] = system: tissue of medial septum nuclei; experiment: acetylcholine synthesis activity of cultured medial septum nucleus tissue (method of Ojika et al.); type: cell-based; details: human-derived HCNP peptide compared with rat-derived HCNP
Excerpt: The neurotrophic activity (also called neurotrophic factor activity) refers to, for example, an action of regulating differentiation and maturation of neuronal cells, namely, an action of accelerating the acetylcholine synthesis in the tissue of medial septum nuclei which is rich in cholinergic neurons.
The human-derived neurotrophic peptide or its derivatives of the present invention can regulate differentiation and maturation of neuronal cells. That is, the neurotrophic peptide and derivatives thereof accelerate the acetylcholine synthesis in the tissue of medial septum nuclei. The biological activity can be determined by the method of Ojika, K., et a. (Reference 66).
Medial septal nucleus was extracted from the brains of 16-day-old SD rat embryos and microscopically dissected into small pieces. […]
Except in the experiment for the study of sequential growth, the cultured tissue on the 9th day was washed with a Tris-HCl (pH 7.4) buffered Tyrode's solution, followed by preincubation in a high-K (55 mM KCl) Tyrode's solution, and then incubation in a Tyrode's solution containing ^3 H-choline chloride at 37° C. for 30 minutes. […] The choline uptake and Ach-productivity were expressed as amounts per one piece of cultured tissue. Choline acetyl-transferase (CATase) was measured using ^14 C-acetyl-CoA, according to the method of Fonnum, biochemical Journal, 115, 465-472 (1969). […]

[2] = system: tissue of medial septum nuclei; details: rat medial septum nuclei acetylcholinergic neuron; Reference 1; cited from earlier work

Substance	neurotrophic activity (acceleration of acetylcholine synthesis) [1]	production of acetylcholine [2]
H-PVDLSKWSGPL-OH [hHCNP, H-Pro-Val-Asp-Leu-Ser-Lys-Trp-Ser-Gly-Pro-Leu-OH]	neurotrophic activity similar to rat-derived HCNP was noted	
HCNP: hippocampal cholinergic neurotrophic peptide composed of 11 amino acid residues isolated from hippocampal tissue of neonatal rat (AADISQWAGPL)		enhances production of acetylcholine

Reference: patent publication US5759991A, “Neurotrophic peptide derivatives” (Sumitomo Pharmaceutical Company, Limited., priority 1991, dated 1998)
